Data reported in paper PMC6085820 (Molecular Biology of the Cell, 2018).

Target: T1, Mtq2:Trm112 (Saccharomyces cerevisiae, UniProt Q03920)
T1 sequence (Q03920 1-221): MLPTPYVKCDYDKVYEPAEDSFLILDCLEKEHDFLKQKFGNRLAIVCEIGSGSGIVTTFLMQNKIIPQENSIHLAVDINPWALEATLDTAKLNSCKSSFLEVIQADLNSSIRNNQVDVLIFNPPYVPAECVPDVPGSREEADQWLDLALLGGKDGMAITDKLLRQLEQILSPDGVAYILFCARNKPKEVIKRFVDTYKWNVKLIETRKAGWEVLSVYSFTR
T1 sequence (P53738 1-135 partner): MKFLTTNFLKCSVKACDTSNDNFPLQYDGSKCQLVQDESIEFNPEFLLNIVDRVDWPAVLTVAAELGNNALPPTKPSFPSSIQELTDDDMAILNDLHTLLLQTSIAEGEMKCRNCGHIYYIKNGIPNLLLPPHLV
Test: MTase-Glo coupled luminescence assay
Assay type: biochemical
Details: SAM as methyl donor

Compound	MTase-Glo coupled luminescence assay (SAH formation) (100 µM As(III))	MTase-Glo coupled luminescence assay (SAH formation) (100 µM MAs(III))
O[As](O)O [As(III), sodium arsenite]	SAM-dependent methyltransferase activity of Mtq2:Trm112 using As(III) as substrate was measured	
C[As](O)O [MAs(III), methyl arsenite]		methyltransferase activity was SAM-dependent and additionally capable of using MAs(III) as a substrate
